# According to US20060069010A1, “Detoxification depot for Alzheimer's disease” (Senicure LLC, priority 2003, published 2006):
# Square brackets hold non-standard residues; d marks the D form. Ends that are not written are not given here.
# Columns and labels:
# [1] = test system: Aβ; settings: after 1 day of treatment; on the order of 500 ng/g tissue; cited from earlier work
# [2] = test system: nt-bAP; settings: according to the thioflavin assay (Zhang et al.); cited from earlier work
# [3] = molecular target: T1, biotinylated Aβ^1-42 peptide (Homo sapiens, UniProt P05067); assay: direct ELISA, plate-immobilised capture peptide probed with biotinylated Aβ peptide; assay type: binding; settings: 1 μg/well capture peptide, 1 μg/ml biotinylated Aβ, 2 hours; compared to scrambled or irrelevant control peptide (FIG. 1a)
# T1 construct: biotinylated Aβ^1-42 peptide (1.7 μg/ml) at 37° C; purchased
# Experimental: (§1) FIG. 1a graphically illustrates binding of biotinylated Aβ^1-42 and biotinylated Aβ^1-40 peptide by RI peptide. 96-well plate was coated with the capture peptide (1 μg/well of retro-inverso [RI], scrambled [SCR] or an irrelevant control peptide), blocked with gelatin and probed with 1 μg/ml of biotinylated Aβ peptide for 2 hours and streptavidin peroxidase for 1 hour. Experiments were repeated and were calculated as Mean±SE (N=2) and expressed as pmols Aβ^1-42/ml of binding solution. Graded concentrations of biotinylated Aβ^1-42 peptide was used as a calibration standard.
# (§2) Testing the binding and stability of biotinylated Aβ peptides in binding solution. The ability of the biotinylated, nt-bAP, which is represented by Aβ peptides (1-42 and 1-40) to bind the binding element, the retro inverso peptide (RI) was investigated on a direct ELISA as described at the end of this section. RI, scrambled or an irrelevant peptide, immobilized on an ELISA plate was allowed to bind biotinylated Aβ peptides, 1-42 or 1-40.
# [4] = molecular target: T2, biotinylated Aβ^1-40 peptide (Homo sapiens, UniProt P05067); assay: as above; assay type: binding; settings: 1 μg/well capture peptide, 1 μg/ml biotinylated Aβ, 2 hours; compared to scrambled or irrelevant control peptide (FIG. 1a)
# T2 construct: biotinylated Aβ^1-40 peptide (1.7 μg/ml) at 37° C; purchased
# Experimental: as §1, §2
# Aβ, sequence (P05067 672-711 limits assumed): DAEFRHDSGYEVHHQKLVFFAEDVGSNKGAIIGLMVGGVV
# nt-bAP, sequence (P05067 672-711 limits assumed): as above
# T2 sequence (P05067 672-711): as the sequence (P05067 672-711 limits assumed) above
# T1 sequence (P05067 672-713): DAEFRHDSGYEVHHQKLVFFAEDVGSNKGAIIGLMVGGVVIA
substance,measurement,setting,value
gelsolin,levels of Aβ in brain,[1],reduced in half
phe-phe-val-leu-lys [ffvlk],toxicity of aggregates of binding element with nt-bAP,[2],less toxic than nt-bAP itself
GM1,levels of Aβ in brain,[1],reduced in half
phe-phe-val-leu-lys-Cys ([dF][dF][dV][dL][dK][dC]-NH2; not fully specified; printed as phe-phe-val-leu-lys-Cys) [RI peptide],binding of biotinylated Aβ^1-42 by capture peptide,[3],significant and specific binding
same,binding of biotinylated Aβ^1-40 by capture peptide,[4],significant and specific binding
